{"source": "patent US8802240B2", "about": "“Uses of formulations of thyroid hormone analogs and nanoparticulate forms thereof to increase chemosensitivity and radiosensitivity in tumor or cancer cells” (Nanopharmaceuticals LLC, priority 2011, dated 2014)", "key": {"[1]": {"test_system": "GL261 tumor cells", "test": "GL261 44° C. hyperthermia", "assay_type": "cell-based, murine", "settings": "44° C. plus Tetrac is the equivalent of 45° C. without Tetrac", "experimental": "Additionally, Tetrac sensitizes GL261 cells in hyperthermic conditions. Graded heat treatment of GL261 tumor cells with 44° C. was given, without and with Tetrac. Tetrac increased cell killing as compared to control cells alone, by the equivalent of about 1° C. (i.e., 44° C. plus Tetrac is the equivalent of 45° C. without Tetrac). (See FIG. 63)."}, "[2]": {"test_system": "P-gp, GST and SOD in MCF7/R cells", "test": "Western blot of classical drug resistance genes", "assay_type": "cell-based", "settings": "24 h", "experimental": "FIG. 15A is a Western blofshowing the expression of P-gp, GST and SOD in wild type (W) drug sensitive and resistant (R) MCF7 cells. […] The cells were treated for 24 h with each drug alone or the combination of both, after that, expression of drug resistance molecules was determined by Western blot using specific antibodies. […] The cells were incubated for 24 hours with doxorubicin in the absence or the presence of Tetrac, after that they were washed and then solubilized. Radioactivity associated with the cell lysates was counted and compared between the two cell lines either treated or not with Tetrac. The data represent an average of 3 determinations±SE."}, "[3]": {"test_system": "GL261 murine brain tumor cells", "test": "GL261 growth curve, colony forming efficiency and cell size", "assay_type": "cell-based", "experimental": "1×10^5 cells per 25 cm^2 flask at time zero (density 40 cells/mm^2). Three flasks were utilized at each time period. The medium in the flasks was not changed over the duration of the growth curve (unfed cultures). Data were taken daily from day zero to day 11.5 post-seeding and cell numbers, age distributions, and apoptotic percentages were determined. After growth curve shapes (without and with 2 μM Tetrac) were determined, irradiation times at 70 and 270 hour post-seeding were chosen.\nTo obtain exponential and plateau phase cell numbers, we trypsinized ([…] trypsin-EDTA) cells for 5 min at 37° C.\nFor determination of CCDTs, the cell numbers per flask were determined on a daily basis. A four-day interval in the exponential region of growth to obtain the CCDTs, yielding a total of 12 estimations for analysis was utilized. A regression analysis was performed using the (log) of the cell number versus the linear time in days (SigmaPlot, V. 10, Systat Software, Inc., Point Richmond, Calif.). The log slope value and its standard error (SE) were determined, and the SE was converted to the 95% confidence limits using a two-tailed t-table at N−1 degrees of freedom where N is the number of samples. (See Goldstein, A. In: Biostatistics, New York, The MacMillan Co., 1964, p. 140-146)."}}}
{"smiles": "O=C(O)Cc1cc(I)c(Oc2cc(I)c(O)c(I)c2)c(I)c1", "note": "[Tetrac, tetraiodothyroacetic acid]", "values": [{"measurement": "increase in cell killing, temperature equivalent", "setting": "[1]", "result": "about 1 °C"}, {"measurement": "expression of P-glycoprotein, SOD and GST-π (in words)", "setting": "[2]", "result": "none of these genes was significantly altered"}, {"measurement": "CFE (%)", "setting": "[3]; exponential cells (+Tetrac), control 30.6, with feeder cells", "result": 24.2, "unit": "%"}, {"measurement": "size of Tetrac-treated cells relative to control (volumetric data)", "setting": "[3]; exponential phase", "result": 1.4, "unit": "times"}, {"measurement": "size of Tetrac-treated cells relative to control (volumetric data)", "setting": "[3]; plateau phase", "result": 1.9, "unit": "times"}]}
